Test results reported in US20200306222A1, “Dosing Regimen of Siponimod” (NOVARTIS AG, priority 2017, published 2020).

What was measured:
[1] = i.v. versus oral absolute bioavailability study in healthy subjects (CBAF312A2126), PK and PD; type: in vivo, human
Protocol: A comparison of bradyarrhythmic effects (HR, AVB, SP) of a 1 mg oral dose from previous studies and a 1 mg/day i.v. dose infused over 24 h in healthy subjects supported the hypothesis that such effects are related to the slope of the concentration-time curve.
In said study with siponimod administered intravenously, PK and PD were determined. […] This finding was consistent with previous oral administrations of 0.25 mg (starting dose of the oral initial period dosing regimen).
(§1) The safety of the i.v. route in humans was supported by a local tolerance study in rabbit and cardiovascular safety studies in guinea pig, rat and rabbit using i.v. (bolus) route.

[2] = randomized placebo-controlled study of siponimod in intracerebral hemorrhage (ICH) patients; type: in vivo, human; settings: compared to placebo
Description: The clinical study investigates the initial efficacy and safety of siponimod administered on top of standard-of-care compared to placebo in patients with intracerebral hemorrhage (ICH). This is a randomized, doubled-blinded, placebo-controlled, parallel group study of siponimod on top of standard-of-care for ICH, consisting of 3 epochs: Screening/Baseline, Treatment, and Follow-Up (see FIG. 1).
Patients fulfilling all eligibility criteria are randomly allocated to one of two treatment groups in a ratio of 1:1. […] These patients continue to be followed for the remainder of the assessment schedule (Table 3). i.v. Dose Titration
The siponimod i.v. dosing regimen is as follows: • Day 1: 0.25 mg over 6 hours (×2), then 0.5 mg over 6 hours, then 0.75 mg over 6 hours for a total Day 1 dose of 1.75 mg • Day 2: 1.25 mg over 6 hours, then 2 mg over 6 hours, then 2.5 mg over 6 hours (×2) for a total Day 2 dose of 8.25 mg • Days 3 through Day 7: 2.5 mg over 6 hours (×4) for a total daily dose of 10 mg. • If patient can swallow then the administration from Day 8 to Day 14 is oral.
This is a randomized, doubled-blinded, placebo-controlled, parallel group study of siponimod on top of standard-of-care for ICH, consisting of 3 epochs: Screening/Baseline, Treatment, and Follow-Up (see FIG. 1).
Patients are assigned to one of the following 2 treatment arms in a ratio of 1:1. • Study treatments are defined as: • Siponimod • Day 1: i.v. 0.25 mg over 6 hours (×2), then 0.5 mg over 6 hours, then 0.75 mg over 6 hours for a total Day 1 dose of 1.75 mg • Day 2: i.v. 1.25 mg over 6 hours, then 2 mg over 6 hours, then 2.5 mg over 6 hours (×2) for a total Day 2 dose of 8.25 mg • Days 3 through 7: i.v. 2.5 mg over 6 hours (×4) for a total daily dose of 10 mg • Days 8 through 14; 10 mg p.o. QD

[3] = system: Absolute Lymphocyte Count (ALC); assay: multiple ascending dosing study in healthy volunteers, decline of Absolute Lymphocyte Count; type: in vivo, human
Protocol: (§2) In another study in healthy subjects siponimod was administered in multiple doses, i.e. 0.3, 1, 2.5, 10 and 20 mg, over 28 days (multiple ascending dosing study, MAD study).

[4] = clinical study of siponimod pharmacokinetics in CYP2C9 poor metabolizers; type: in vivo, human
Description: In addition to the previously described benefits, the dosing regimen of the present disclosure has also the advantage to highly reduce the additional risks run by the CYP2C9 poor metabolizer.

[5] = i.v. (bolus) cardiovascular safety studies; type: in vivo, guinea pig, rat and rabbit; settings: similar to the effects by oral route
Description: as §1

[6] = siponimod single dose study (SAD study) in healthy volunteers; type: in vivo; settings: healthy subjects
[7] = multiple ascending dosing study (MAD study) in healthy subjects, adverse events; type: in vivo, human; settings: maximum investigated multiple dose of 20 mg, over 28 days
Protocol: as §2

[8] = phase II dose finding study in relapsing-remitting multiple sclerosis (CBAF312A2201); type: in vivo, human; settings: RRMS patients
Protocol: In a phase II dose finding study of siponimod in patients with relapsing-remitting multiple sclerosis (CBAF312A2201) safety, tolerability and efficacy on magnetic resonance imaging (MRI) brain lesion parameters were evaluated. The dose response curve for the MRI-based efficacy of siponimod given orally once daily compared with placebo was determined.
The dose-response curve as defined by the primary endpoint, favored the upper part of this range, i.e. a dose in the range of siponimod 2 mg, since efficacy seemed to decrease with lower doses. Siponimod achieved positive results in a clinical trial for the treatment of RRMS patients (Selmaj et al., Lancet Neurol, 2013, 12, 756-767) and is currently being investigated in an ongoing phase III study (EXPAND) in patients with SPMS. The dose of 2 mg of siponimod was the chosen dose for this follow up phase III study.

[9] = system: peripheral lymphocyte counts; assay: general pharmacokinetics/pharmacodynamics of siponimod (lymphocyte counts, half-life, brain penetration); type: in vivo
Protocol: (§3) Siponimod is a second generation S1P receptor modulator that reduces peripheral lymphocyte counts approximately 4-6 hours (h) after the first dose. […] Siponimod's mode of action is believed to include S1P1-mediated prevention of effector lymphocyte recirculation from lymphatic tissue to sites of inflammation, such as the central nervous system (CNS). In addition, there may be direct beneficial effects in the CNS mediated by S1P1 and/or S1P5. […] Thus, siponimod may display additional beneficial activities in the CNS.

[10] = as above; type: in vivo; settings: in vivo
Protocol: as §3

[11] = multiple-dose titration clinical study in healthy subjects, daily chronotropic effects; type: in vivo, human
Protocol: S1P receptor modulators, as mentioned above, are known to cause dose dependent transient decrease in heart rate within 2-3 hours of drug intake (Legangneux et al. 2012, Hoch et al. 2014). In order to evaluate on how to best mitigate the bradyarrhythmic risk of siponimod, a multiple-dose titration clinical study in healthy subjects was run.
The primary objective of this study was to measure the daily chronotropic effects of two siponimod dose-titration regimens (from 0.25 mg to 10 mg; Dose Titration (DT) 1# and 2#, respectively) compared to daily chronotropic effects of oral siponimod 10 mg (fixed dose, once daily) and placebo over 12 days. The heart rate (HR) changes have been compared between subjects exposed to 10 mg siponimod once daily (QD) with or without 2 different up-titration schemes. The titration scheme of this study was: • DT 1#: Day 1: 0.25 mg; Day 2: 0.25 mg; Day 3: 0.25 mg; Day 4: 0.5 mg; Day 5: 1.0 mg; Day 6: 2.0 mg; Day 7: 4.0 mg; Day 8: 8.0 mg and from Day 9 to Day 12: 10.0 mg daily. • DT 2#: Day 1: 0.25 mg; Day 2: 0.25 mg; Day 3: 0.5 mg; Day 4: 0.75 mg; Day 5: 1.25 mg; Day 6: 2.0 mg; Day 7: 3.0 mg; Day 8: 5.0 mg; from Day 9 to Day 12: 10.0 mg daily.
This effect was maintained until end of treatment on Day 12. […] It was then concluded that both titration regimens effectively attenuated the initial bradycardia observed on Day 1 of treatment with siponimod 10 mg daily fixed-dose.

CYP2C9, CYP3A4 = settings: humans; cited from earlier work

## CCc1cc(/C(C)=N/OCc2ccc(C3CCCCC3)c(C(F)(F)F)c2)ccc1CN1CC(C(=O)O)C1 [siponimod, 1-{4-[(1E)-N-{[4-cyclohexyl-3-(trifluoromethyl)benzyl]oxy}ethanimidoyl]-2-ethylbenzyl}-3-azetidine carboxylic acid]
[1]; human, in vivo
  pharmacokinetics (PK) linearity: dose linear and time-independent pharmacokinetics
[1]; human, in vivo, 0.25 mg, oral, after dosing, read-out: median oral Tmax
  Tmax: 8 h
[1]; i.v. 0.25 mg over 3 hour and 1 mg over 24 hours
  magnitude of PD (ALC) effects %Emax, i.v. versus oral: comparable to the effects after oral doses at the same dose levels
[1]; i.v. infusion 0.25 mg over 3 hours and 1 mg over 24 hours
  median i.v. Tmax: at the end of the 3 hour and 24 hour infusions
[1]; i.v. infusion 0.25 mg over 3 hours and 1 mg over 24 hours (4×0.25 mg/6 hours)
  cardiac safety profile: excellent cardiac safety profile
[1]; oral versus i.v.
  geometric mean oral Cmax relative to mean i.v. Cmax (lower): -48%
[2]; Day 90 after ICH, 7 days i.v. with titration followed by 7 days p.o.
  global functioning, modified Rankin Scale (mRS) score: improves global functioning
[2]; between 24 hours and 14 days after initiation of treatment
  development of perihematomal edema (PHE): decreases the development of perihematomal edema (PHE)
[2]; two week treatment
  functional mobility: improves functional mobility of the affected body parts
[3]; 0.3 mg dose group
  % Emax0-12 h from Day 1 pre-dose: 41.9%
  % Emax0-12 h from time-matched Day −1: 47.8%
[3]; 1 mg dose group
  % Emax0-12 h from Day 1 pre-dose: 71.3%
  % Emax0-12 h from time-matched Day −1: 73.8%
[3]; 2.5 mg
  ALC decrease, chronic response: ~70%
[3]; 2.5 mg dose group
  % Emax0-12 h from Day 1 pre-dose: 66.9%
  % Emax0-12 h from time-matched Day −1: 67.5%
[3]; 10 mg
  ALC decrease, chronic response (plateau): about 80%
[3]; 10 mg dose group
  % Emax0-12 h from Day 1 pre-dose: 83.7%
  % Emax0-12 h from time-matched Day −1: 86.1%
[3]; 20 mg dose group
  % Emax0-12 h from Day 1 pre-dose: 84.8%
  % Emax0-12 h from time-matched Day −1: 86.5%
[3]; Day 1 of treatment, between 0.3 mg and 10 mg dose
  acute ALC response: dose-dependent decline of ALC
[4]; poor and extensive metabolizers
  Tmax in poor versus extensive metabolizers: comparable
[4]; poor metabolizers
  Cmax in poor versus extensive metabolizers: only slightly greater
[4]; poor metabolizers (CYP2C9*2*3 and CYP2C9*3*3 genotypes)
  AUC fold versus extensive metabolizers (CYP2C9*1*1): approximately 2 fold
[5]
  cardiovascular effects: Cmax-related transient cardiovascular effects
[6]; 25 mg single dose
  safety and tolerability: favorable safety and tolerability profile
[6]; single dose
  single maximum tolerated dose (single MTD): 25 mg
[7]
  only relevant adverse event: symptomatic bradycardia
[8]; 1.25 mg to 2 mg dose range
  MRI-based efficacy: close to maximal efficacy
  safety profile: good safety profile
[8]; 10 mg orally once daily
  MRI-based efficacy: little additional efficacy compared to 2 mg
  safety profile: worse safety profile
[9]; after the first dose
  time to reduction of peripheral lymphocyte counts: 4 to 6 h (h)
[9]; after treatment withdrawal
  recovery of the baseline lymphocyte counts: within a week
[9]; in vivo
  blood brain barrier crossing: readily crosses the blood brain barrier
[10]
  half-life: ~30 h
[11]; Day 1, either titration regimen
  reduction in heart rate vs. placebo: no statistically significant reduction in heart rate vs. placebo
[11]; Days 3 to 7, DT 1# and DT 2#
  reduction in HR: minor reductions in HR
[11]; by Day 9 until Day 12, both titration regimens
  heart rates versus placebo: comparable to placebo
[11]; dose titration regimens DT 1# and DT 2# (0.25 mg to 10 mg), oral, 12 days
  clinically significant bradycardia or AV conduction effects: Neither DT 1# nor DT 2# resulted in clinically significant bradycardia or AV conduction effects
[11]; non-titration regimen, 10 mg fixed dose once daily, throughout the study
  heart rates versus placebo: considerable separation from placebo
[11]; starting dose of 0.25 mg of the 2 DT regimens
  bradyarrhythmia: not associated with bradyarrhythmia
CYP2C9, CYP3A4
  metabolizing enzymes: mainly by CYP2C9, followed by CYP3A4
